Columns and labels:
[1] = tested on: rat auricular subcutaneous blood vessel; assay: Vasodilation in vivo, blood vessel diameter after intravenous administration
Experimental: Eight-week-old or older female rats (Wistar, body weight: approximately 200 g, n=1) were anesthetized by subcutaneous administration of urethane so as to be […] body weight. The hair of the auricles of the rats was then removed and the rats were fixed on a fixing table. After the fixing, the fixing table was placed under a microscope (Nikon OPTIphoto, produced by Nikon Corporation). In addition, a catheter was placed in the groin vein of the rat.
BisEP-C3 was dissolved in a saline solution to achieve a concentration of 3 mg/ml. The resulting saline solution containing BisEP-C3 was administered intravenously via the catheter so as to be 3 mg/kg body weight. Then, the hemodynamic course of the rat auricular subcutaneous blood vessel was photographed and recorded using a microscope at a predetermined period (30, 60, 120 or 180 minutes) before and after the administration.
The obtained images were classified into three blood vessel thicknesses (thick: 35-45 μm, medium: 15-20 μm, thin: 7-9 μm) based on the diameter of the blood vessel before administration. […] Further, for each selected site, the relative blood vessel diameter was calculated after the measurement of the blood vessel diameter, with the blood vessel diameter before administration being a reference (1). […] As a control, the blood vessel diameter was calculated in the same manner except that the saline solution was administered.

[2] = NO-eliminating ability by ESR with NO donor NOC-7 and Carboxy-PTIO
Experimental: It was examined whether the vasodilator of the present invention has NO-eliminating ability. Specifically, as to the NO generation reaction, NOC-7 of NO donor was used to examine whether the NO concentration is reduced in the presence of BisEP-C3. First, 20 μl of a BisEp-C3 solution was added to 140 μl of a phosphate buffer solution (pH 7.4) having a concentration of […] so as to achieve a predetermined concentration (0, 25, 50, 100, 200, 400, or 600 μmol/1), and further 20 μl of a spin-trapping agent (100 μmol/1), Carboxy-PTIO(2-(4-Carboxyphenyl)-4, 4, 5, 5-tetramethylimidazoline-1-oxyl-3-oxide, sodium salt, final concentration 10 μmol/1) solution and 20 μl of a NO donor solution (10 mmol/1NOC-7 (1-Hydroxy-2-oxo-3-(N-methyl-3-aminopropyl)-3-methyl-1-triazene, final concentration […])) were added and mixed. The NO donor solution was prepared using a sodium hydroxide solution having a concentration of 0.1 mmol/1. Then, after the mixing, the mixture was incubated at room temperature for 3 minutes, and the obtained reaction solution was measured under the following ESR measurement conditions 2. Then, the proportion of the decrease in the signal intensity was calculated as the NO-eliminating ability with the signal intensity of the sample with no BisEP-C3 (0 μmol/1) being 100%.
ESR Measurement Conditions 2 […]

Compound: CCN1N=C(C)/C(=C\C=C\c2c(C)nn(CC)c2O)C1=O [BisEp-C3, 2,4-dihydro-4-[3-(1-ethyl-5-hydroxy-3-methyl-1H-pyrazol-4-yl)-2-propen-1-ylidene]-2-ethyl-5-methyl-3H-pyrazol-3-one]
- relative value of the blood vessel diameter ([1]; 3 mg/kg body weight intravenously, 30, 60, 120 or 180 minutes, versus saline control, FIG. 10): dilated at any time after administration as compared to the control
- severity of dilatation by blood vessel size ([1]; thick 35-45 μm, medium 15-20 μm, thin 7-9 μm, 3 mg/kg intravenously): remarkably observed in the smaller blood vessels
- NO-eliminating ability ([2]; 0, 25, 50, 100, 200, 400, or 600 μmol/1, 3 minutes at room temperature, FIG. 14): eliminated NO in a concentration-dependent manner
- superoxide decrease compared with NO-eliminating ability ([2]; equal concentration, comparison with the superoxide test): the proportion of the decrease in the production amount of superoxide is larger than the NO-eliminating ability

Reference: US12569470B2, “Vasodilator and use thereof” (Bioradical Research Institute Corp., priority 2019, dated 2026)
